Test results taken from patent US12296017B2, “Bioorthogonal compositions” (TAMBO, INC., priority 2017, dated 2025).
Values after ≈ are worked out from the molar mass of the structure shown. Values joined by “and” are separate entries in the source; they are usually repeats but may differ in a detail not shown here. Equal entries are not always repeated.

Columns and labels:
[1] = Aqueous solubility of Example 13B under different buffer conditions
[2] = test system: methicillin-resistant Staphylococcus Aureus SP231; assay: Rat knee joint MRSA infection study; assay type: in vivo; conditions: rats; TAG (right knee) vs unmodified alginate control gel (left knee); prodrug via tail vein; 24 h; p<0.05
Experimental: Prodrug, TCO-Dapto was delivered systemically via tail vein. Mean±SEM of n=3, unpaired two-tailed Welch's t-test, *p<0.05.
Female Sprague-Dawley rats of age 6-8 weeks were approved for this study by the Institution of Animal Care and Use Committee (IACUC). Neutropenia was induced with cyclophosphamide intraperitoneally, 4 days (150 mg/kg) and 1 day (100 mg/kg) prior to gel injections. Animals received intra-articular injections of […] of 2.5% w/v of Cy5-modified alginate TAG (right knee) or unmodified alginate-Cy5 gel control (left knee) mixed with […] of 10^8 CFU/mL of methicillin-resistant Staphylococcus Aureus SP231 bacteria. After 2 h, animals received 61 μM of transcyclooctene-modified daptomycin-glycine (TCO-Dapto) via tail vein IV at standard dosing volume. After 24 h of gel injections, knee joints were harvested, homogenized and diluted in Dubelco's Phosphate buffered saline (D-PBS). Homogenized mixture was plated onto trypticase soy agar plates containing 5% sheep's blood duplicate. Bacterial colonies were enumerated following 20 h of incubation and bacterial load as LOG CFU/g of knee joint was determined. Statistical analysis was performed with Welch's two-tailed t-test and * denotes p<0.05. Error bars indicate standard error over means of n=3.

MRSA bacteria = assay: In vitro calorimetry (MRSA) in presence and absence of TAG
bacteria = assay: Microcalorimetry activity of Vanco-Bis-TCO-Glycine; assay type: cell-based; conditions: tested up to 64 μg/ml (32 μM), without activating gel
[3] = Phosphate Buffer pH 6.5, final pH 6.1
[4] = Phosphate Buffer pH 7.5, final pH 5.4

Structure (SMILES)	Solubility, Mean ([1]; Buffer: Water, final pH 3.4) [mg/mL]	Solubility, Value ([1]; Buffer: Water, final pH 3.4)	Solubility, Mean [1, 3] [mg/mL]	Solubility, Value [1, 3]	Solubility, Mean [1, 4] [mg/mL]	Solubility, Value [1, 4]	bacterial loading of harvested knee joint [2]	MHIC in the absence of TAG relative to presence of TAG (MRSA bacteria) [×]	activity against bacteria as measured by microcalorimetry (bacteria)
CCCCCCCCCC(=O)NC(Cc1c[nH]c2ccccc12)C(=O)NC(CC(N)=O)C(=O)NC(CC(=O)O)C(=O)NC1C(=O)NCC(=O)NC(CCCNC(=O)OC2C=CCCC(C)(C(=O)NCC(=O)O)CC2)C(=O)NC(CC(=O)O)C(=O)NC(C)C(=O)NC(CC(=O)O)C(=O)NCC(=O)NC(CO)C(=O)NC(C(C)CC(=O)O)C(=O)NC(CC(=O)c2ccccc2N)C(=O)OC1C (stereo not drawn) [Example 13B, Dapto-TCO-Glycine]	0.15 (≈ 0.0795 mM)	0.15 mg/mL and 0.14 mg/mL	10.9 (≈ 5.77 mM)	10.8 mg/mL and 10.9 mg/mL	38.3 (≈ 20.3 mM)	38.1 mg/mL and 38.3 mg/mL	reduces MRSA infection in vivo in a knee joint		
CC(C)CC(C(=O)N[C@H]1C(=O)N[C@@H](CC(N)=O)C(=O)N[C@H]2C(=O)N[C@H]3C(=O)N[C@H](C(=O)N[C@H](C(=O)O)c4cc(O)cc(O)c4-c4cc3ccc4O)[C@H](O)c3ccc(c(Cl)c3)Oc3cc2cc(c3O[C@@H]2O[C@H](CO)[C@@H](O)[C@H](O)[C@H]2O[C@H]2C[C@](C)(NC(=O)O[C@@H]3/C=C/CC[C@](C)(C(=O)NCC(=O)O)CC3)[C@H](O)[C@H](C)O2)Oc2ccc(cc2Cl)[C@H]1O)N(C)C(=O)O[C@@H]1/C=C/CC[C@](C)(C(=O)NCC(=O)O)CC1 (stereo partly drawn) [Example 13C, Vanco-Bis-TCO-glycine Conjugate]								8	no activity
